From article PMC7812938, “Dehydrobufotenin extracted from the Amazonian toad Rhinella marina (Anura: Bufonidae) as a prototype molecule for the development of antiplasmodial drugs” (The Journal of Venomous Animals and Toxins Including …, 2021)
Read-outs that look alike come from different tables or passages of the source.

Legend:
[1] = tested on: P. falciparum W2 strain (chloroquine resistant); assay: In vitro antiplasmodial activity; type: cell-based, Plasmodium falciparum; conditions: read-out: IC50 ± SD (drug concentration that reduced parasite viability in 50%)
Description: P. falciparum continuous culture was maintained as previously described with minor modifications. […] The parasites at early stages were synchronized at ring stage by sorbitol treatment. Initial parasitemia was adjusted to 0.5% with 2% hematocrit in all experiments.
In vitro antiplasmodial activity of the bufadienolides (compounds dehydrobufotenin, marinobufotoxin, marinobufagin and bufalin) was done in 96 well plates. The growth inhibition of intraerythrocytic forms and parasite morphology in culture was assessed by microscopic observation of the Giemsa-stained thin blood films. Ring stage parasites (0.5% parasitemia and 2% hematocrit) were added to each well of 96-well microculture plates. The compounds (dehydrobufotenin, marinobufotoxin, marinobufagin and bufalin) were dissolved in DMSO and diluted to concentrations ranging from 0.78 to 100 μg/mL using complete medium and stored a 4 °C. After incubation at 37 °C for 48 hours, P. falciparum growth inhibition was assessed in Giemsa-stained smears by observing 5,000 erythrocytes per 1 thin blood film in triplicate. The culture medium was replaced with fresh medium with or without test samples/control drugs. […] All experiments were performed in triplicate.
(§1) The coefficients of regression of these curves were calculated using the method of least squares. The LD50 were determined based on the equation of the curve obtained by plotting the % of cellular death versus the concentration of compound (GraphPad Prism Software, version 5.0 for Windows, San Diego, California, USA). The average IC50 and LD50 were compared using ANOVA. Statistical significance was defined at the 5% level (P<0.05).

[2] = tested on: WI-26VA4 human pulmonary fibroblast cells; assay: In vitro cytotoxicity, MTT assay; type: cell-based; conditions: for SI (selectivity index): SI = LD50 Cell / IC50 P. falciparum, WI-26VA4 vs W2; for LD50 ± SD (lethal drug concentration that reduced WI-26VA4 cells viability in 50%): WI-26VA4 human pulmonary fibroblast cells, MTT, 24 hours, mean and SD of triplicate experiments
Description: The cells were washed with culture medium, trypsinized, distributed in a flat-bottomed 96-well plate (5×10^3 cells/well), and incubated for 18 hours at 37 °C for cell adherence. The compounds (20 μL) were diluted in different concentrations ranging from 0.2 - 200 μg/mL and incubated with the cells for 24 hours in a 5% CO2 atmosphere at 37 °C.
A 3-(4,5-dimethylthiazol-2-yl)-2,5-diphenyltetrazolium bromide (MTT) solution (5 mg/mL; 20 μL/well) was added to evaluate mitochondrial viability; after a further 3 hours incubation, the supernatants were carefully removed, 100 μL of DMSO was added to each well, and the reactions were mixed to solubilize the formazan crystals. […] The cell viability was expressed as a percentage of the control absorbance in the untreated cells after subtracting the appropriate background.
A selectivity index (SI) corresponding to the ratio between the cytotoxic and antiplasmodial activities of each compound tested. The values greater than 10 were considered indicative of lack of toxicity, whereas the substances with values below 10 were considered toxic. The SI index was calculated as follow:
SI=LD50 Cell/IC50 P.falciparum
as §1

[3] = Plasmodium falciparum, W2, 48 h

Row | Compound | IC50 ([1]; P. falciparum W2 (chloroquine-resistant), 48 hours, Giemsa-stained smears, mean and SD of triplicate experiments) | SI (selectivity index) [2] | LD50 ± SD (lethal drug concentration that reduced WI-26VA4 cells viability in 50%) [2] | LD50 ± SD (lethal drug concentration that reduced WI-26VA4 cells viability in 50%) ([2]; listed as bufalin) | IC50 [1, 3] | SI (selectivity index) ([2]; listed as dehydrobufotenin) | LD50 ± SD (lethal drug concentration that reduced WI-26VA4 cells viability in 50%) ([2]; listed as dehydrobufotenin) | LD50 ± SD (lethal drug concentration that reduced WI-26VA4 cells viability in 50%) ([2]; listed as marinobufagin) | LD50 ± SD (lethal drug concentration that reduced WI-26VA4 cells viability in 50%) ([2]; listed as marinobufotoxin)
1 | C[C@]12CC[C@H](O)C[C@H]1CC[C@@H]1[C@@H]2CC[C@]2(C)[C@@H](c3ccc(=O)oc3)CC[C@]12O [Bufalin] | 3.44 ± 0.43 µM | 7.52 | 25.9 ± 7.04 µM | 25.9 µM |  |  |  |  | 
2 | CCN(CC)CCCC(C)Nc1ccnc2cc(Cl)ccc12 (stereo not drawn) [Chloroquine (CQ), Chloroquine, reference compound] |  |  |  |  | 1.04 ± 0.21 µM |  |  |  | 
3 | C[N+]1(C)CCc2c[nH]c3ccc(O)c1c23 [Dehydrobufotenine, Dehydrobufotenin] |  | 12.33 | 235.76 ± 4.03 µM |  | 19.1 ± 0.2 µM | > 10 | 235.76 µM |  | 
4 | CC12CCC(O)CC1(O)CCC1C2CCC2(C)C(c3ccc(=O)oc3)CC3OC312 (stereo not drawn) [Marinobufagin] |  | 0.78 | 3.04 ± 0.25 µM |  | 3.89 ± 0.42 µM |  |  | 3.04 µM | 
5 | CC12CCC(OC(=O)CCCCCCC(=O)NC(CCCNC(=N)N)C(=O)O)CC1(O)CCC1C2CCC2(C)C(c3ccc(=O)oc3)CC3OC312 (stereo not drawn) [Marinobufotoxin, 3-(N-suberoylargininyl) marinobufagin] |  | 1.67 | 8.89 ± 2.66 µM |  | 5.31 ± 0.25 µM |  |  |  | 8.89 µM
